Holding throughout (assay type): cell-based, Human
Assay [1] relates to MCF-7 cells. The assay can be described thus: Western blot analysis of cyclin D1 expression. The following applies: 10 μM, 48 hr.
Assay [2] has as its system HCT116 p53^−/− cells. The assay can be described thus: Cell cycle analysis (PI / BrdU, flow cytometry). The following applies: 5 or 10 μM, 48 hr. The protocol: Low concentrations of LCAHA inhibit the growth of HCT116 cells without affecting their survival. To investigate this effect, we analyzed the cell-cycle distribution. Cells treated for 48 hr with LCAHA or DMSO were pulse-labeled with BrdU for 1 hr and stained with fluorescein isothiocyanate (FITC)-anti-bromodeoxyuridine (BrdU) antibody and propidium iodide (PI).
The cells were treated with DMSO or LCAHA for 48 hours and pulse-labelled with 10 μM bromodeoxyuridine (BrdU, Sigma Aldrich) for the last hour of the treatment. After that, the cells were either harvested by trypsinization and fixed with 96% ethanol, or cultured for additional 3-9 hours in the absence of BrdU before harvesting and fixation. The cells were stained with PI and FITC-conjugated anti-BrdU antibody (BioLegend, cat. 364104) and analysed with Fortessa flow cytometer (Becton Dickinson). Cell cycle distribution was analysed using ModFit LT Software (Verity Software House).
On the technique in general: Flow cytometry measures light scatter and fluorescence of single cells or particles in a stream.

Assay [3] deals with HCT116 p53^wt cells. The text has this: […]. To investigate this effect, we analyzed the cell-cycle distribution. Cells treated for 48 hr with LCAHA or DMSO were pulse-labeled with BrdU for 1 hr and stained with fluorescein isothiocyanate (FITC)-anti-bromodeoxyuridine (BrdU) antibody and propidium iodide (PI). […].
[…]. To track the progression through the S phase and G0/G1 arrest precisely, we analyzed FITC-positive and -negative cells separately for cell-cycle distribution using ModFit LT software.
[…]. After that, the cells were either harvested by trypsinization and fixed with 96% ethanol, or cultured for additional 3-9 hours in the absence of BrdU before harvesting and fixation. The cells were stained with PI and FITC-conjugated anti-BrdU antibody (BioLegend, cat. 364104) and analysed with Fortessa flow cytometer (Becton Dickinson). Cell cycle distribution was analysed using ModFit LT Software (Verity Software House).
Figure S2. PI-BrdU pulse-chase labeling of HCT116 cells for the evaluation of cell cycle progression following LCAHA treatment. […].
HCT116 p53wt cells were seeded on culture dishes in growth medium containing 3.3% FBS and treated […]
the end of the treatment half of the medium was collected in a falcon tube, and the other half was supplemented with BrdU in a final concentration of 10 µM. After one hour, the medium containing BrdU was removed and the cells were trypsinized and fixed (time “t0”) or cultured in the medium previously collected in the falcon tube for additional 3, 6 or 9 hours. After that time the cells were trypsinized, fixed and stained with FITC conjugated anti-BrdU antibody and propidium iodide (PI). The cells were analyzed by flow cytometry using BD Fortessa cell analyzer and BD […] software. All cells, as well as FITC positive (BrdU+, top panel) and FITC negative (BrdU-, bottom panel) counts were exported to separate files and analyzed separately using ModFit LT Software. The graphs show mean ± SD values from three independent experiments. The statistical significance was evaluated using one-way ANOVA with Tukey’s […]

The subject of the next assay is HCT116 cells. The assay can be described thus: Membrane integrity LDH release assay. The following applies: 48 hr of treatment. The protocol:
To test the biological activity of the compounds, we performed MTT (3-(4,5-dimethylthiazol-2-yl)-2,5-diphenyltetrazolium bromide) and lactate dehydrogenase (LDH) release assays. In addition, the importance of p53 status was evaluated by the use of two variants of HCT116 cells: HCT116 p53^wt (wild-type) and HCT116 p53^−/−. To track not only the toxic (lethal) but also growth-inhibitory (GI) effect in the MTT assay, we treated the cells for 6 days. In the experiment the toxic effect, but not the GI effect, was expected to be accompanied by LDH release.
Membrane integrity LDH release assay was performed using CytoTox-ONE kit (Promega). The cells were seeded on 96-well black plates, and after 24 hours treated with the compounds or DMSO for 2 days. The assay was performed according to the manufacturer’s instructions. For each well the data was calculated as a % of total LDH content, measured for the lysed cells, treated in the same manner as cells on that well.
A general note: LDH leaks from cells whose membrane has failed.

Assay [4] has as its system HCT116 p53^wt cells. The assay can be described thus: MTT assay (cell viability), 6 days treatment. The conditions noted are these: for GI50: HCT116^wt, MTT assay. The protocol: (§1) To test the biological activity of the compounds, we performed MTT (3-(4,5-dimethylthiazol-2-yl)-2,5-diphenyltetrazolium bromide) and lactate dehydrogenase (LDH) release assays. […] To track not only the toxic (lethal) but also growth-inhibitory (GI) effect in the MTT assay, we treated the cells for 6 days.
(§2) For MTT assay, the cells were seeded on 96-well transparent plates and treated the next day with the compounds or DMSO for 6 days. Thiazolyl Blue Tetrazolium Bromide (MTT, Sigma Aldrich) was added for 60 minutes to a final concentration of […]. The medium was removed and MTT crystals were dissolved in isopropanol supplemented with 40 mM HCl. The absorbance was measured with Infinite 200 microplate reader (Tecan Group Ltd.) at 570 nm with the reference wavelength 650 nm for background subtraction.

Assay [5] has as its system HCT116 p53^−/− cells. The assay can be described thus: MTT assay (cell viability), 6 days treatment. The following applies: for GI50: HCT116 p53^−/−, MTT assay. The protocol: as §1, §2
Background: Formazan colour is commonly taken as a measure of viable cells.

Assay [6] concerns MCF-7 cells. The assay can be described thus: Colony formation assay. The conditions noted are these: 5 μM for 5 days. How it is done:
(§3) […]. […] […]. In addition a colony-forming assay was performed on cyclin D1-addicted MCF-7 cells and cyclin D1-negative SAOS-2 cells. […].
(§4) One thousand of the cells was then seeded on 6-well plates and cultured for 2-4 weeks until the generation of well-visible clones. The plates were stained with crystal violet, imaged with the ChemiDoc MP system and analyzed using the ImageJ software ([Schneider et al., 2012]) and ‘Analyze particles’ tool. The surviving fraction (SF) was calculated using the equation: SF = (PE of treated sample / PE of control) * 100%, where PE (plating efficiency) = Ncolonies / Ncells plated.

A further assay deals with SAOS-2 cells. The assay can be described thus: Colony formation assay. The conditions noted are these: 5 μM for 5 days. How it is done:
as §3, §4

Where [7] appears, read: 5 μM, 48 hr, nine hours after BrdU pulse.
Where [8] appears, read: Homo sapiens, HCT-116, 144 h, 6 days.
[9] abbreviates: concentration range 2–20 μM, MTT, 6 days.

Broadly, the GI50 is the concentration that inhibits growth by half.

Structures are written as SMILES. Some results are limits rather than exact numbers.

Turning to `C[C@H](CCC(=O)NO)[C@H]1CC[C@H]2[C@@H]3CC[C@@H]4C[C@H](O)CC[C@]4(C)[C@H]3CC[C@]12C` [LCAHA, N-(hydroxy)-3-hydroxylithocholanamide], in the assay with MCF-7 cells [1], the “cyclin D1 expression” value is reported as “significant decrease of cyclin D1 expression”. Also, the G0/G1 arrest entry with HCT116 p53^−/− cells [2] is “mild, but significant G0/G1 arrest”; in the assay on HCT116 p53^wt cells [3] (5 or 10 μM, 48 hr), “mild, but significant G0/G1 arrest”. Besides, the “BrdU incorporation (rate of DNA synthesis)” value in the assay with HCT116 p53^wt cells [3] is listed as “dose-dependent decrease in the rate of DNA synthesis”. In addition, in the assay with HCT116 p53^wt cells [3] (setting [7]), the “BrdU^− cells that left G0/G1 phase and entered the S phase” value is reported as 20%. Moreover, in the assay with HCT116 p53^wt cells [3] (setting [7]), the “proportion of BrdU^+ cells in G0/G1 phase” value worked out at 24%. In the assay with HCT116 p53^wt cells [3] (setting [7]), the “proportion of BrdU^+ cells remaining in the S phase” value amounted to 56%. For the same compound, the cell-cycle progression entry in the assay on HCT116 p53^wt cells [3] (5 μM, control siRNA-transfected HCT116 cells) is “blocked the cell-cycle progression”. Besides, the LDH release entry in the assay on HCT116 cells is “observed only at the concentrations corresponding to the high-concentration toxic effect”. Also, the GI50 in the assay on HCT116 p53^wt cells [4] (6 days) was 870 ± 90 nM; in the assay with HCT116 p53^wt cells [4] (setting [8]) it was less than 1000 nM; in the assay on HCT116 p53^−/− cells [5] (6 days) it was 960 ± 290 nM; in the assay with HCT116 p53^−/− cells [5] (setting [8]), less than 1000 nM. For the same compound, the LD50 (concentration killing 50% of cells) in the assay on HCT116 p53^wt cells [4] (Homo sapiens, HCT-116, 144 h, read-out: LD50, HCT116^wt, MTT assay, 6 days) is greater than 25 µM. Besides, the “growth of cells inhibited” value with HCT116 p53^wt cells [4] (setting [9]) and in the assay with HCT116 p53^−/− cells [5] (setting [9]) was “about 60%” in each case. Further, the LD50 in the assay with HCT116 p53^−/− cells [5] (Homo sapiens, HCT-116, 144 h, read-out: LD50, HCT116 p53^−/−, MTT assay, 6 days) is greater than 25 µM. Further, the “clonogenic potential (surviving fraction and mean colony size)” value with MCF-7 cells [6] is given as “significant decrease of the clonogenic potential”. Also, in the assay on SAOS-2 cells, the clonogenic potential entry is “did not affect the clonogenic potential”.

For the origin of these results see article PMC5404848 (Cell Chemical Biology, 2017).
